Measurements from the NIST ThermoML archive (doi:10.1021/je200420u).

Columns and labels:
[1] = Molar enthalpy of transition or fusion; conditions: DSC
[2] = molar heat capacity at constant pressure; conditions: 101.33 kPa, Crystal 4, Small sample (50 mg) DSC
[3] = DTA

CCN1C(=O)CC(=O)N(CC)C1=S [1,3-diethyl-2-thiobarbituric acid]
Conditions | Molar enthalpy of transition or fusion [kcal/mol] | Triple point temperature [K] | molar heat capacity at constant pressure [J/K/mol]
[1], Crystal | 8.48 | – | –
[2], 265.15 K | – | – | 213.5
[2], 270.15 K | – | – | 217.3
[2], 273.15 K | – | – | 219.8
[2], 275.15 K | – | – | 221.2
[2], 280.15 K | – | – | 224.5
[2], 285.15 K | – | – | 227.7
[2], 290.15 K | – | – | 230.4
[2], 295.15 K | – | – | 233.7
[2], 298.15 K | – | – | 236.9
[2], 300.15 K | – | – | 238.9
[2], 305.15 K | – | – | 240.8
[2], 310.15 K | – | – | 244.8
[2], 315.15 K | – | – | 249.8
[2], 320.15 K | – | – | 252.9
[2], 325.15 K | – | – | 256.1
[2], 330.15 K | – | – | 259.7
[2], 335.15 K | – | – | 263.1
[2], 340.15 K | – | – | 266.5
[2], 345.15 K | – | – | 269.7
[2], 350.15 K | – | – | 273.3
[2], 355.15 K | – | – | 277.8
[2], 360.15 K | – | – | 282.3
[2], 365.15 K | – | – | 287.2
[3], Crystal | – | 377.1 | –

Oc1cc(O)nc(S)n1 [2-mercapto-4,6-pyrimidinediol]
Conditions | Molar enthalpy of transition or fusion [kcal/mol] | Triple point temperature [K] | molar heat capacity at constant pressure [J/K/mol]
[1], Crystal 1 | 3.54 | – | –
[1], Crystal 2 | 0.0717 | – | –
[1], Crystal 3 | 0.0478 | – | –
[1], Crystal 4 | 0.167 | – | –
[2], 265.15 K | – | – | 124.3
[2], 270.15 K | – | – | 126.6
[2], 273.15 K | – | – | 128
[2], 275.15 K | – | – | 128.8
[2], 280.15 K | – | – | 131.1
[2], 285.15 K | – | – | 132.5
[2], 290.15 K | – | – | 134.2
[2], 295.15 K | – | – | 136.2
[2], 298.15 K | – | – | 137.2
[2], 300.15 K | – | – | 138.6
[2], 305.15 K | – | – | 140
[2], 310.15 K | – | – | 142.2
[2], 315.15 K | – | – | 144.7
[2], 320.15 K | – | – | 146.3
[2], 325.15 K | – | – | 147.9
[2], 330.15 K | – | – | 150.1
[2], 335.15 K | – | – | 152
[2], 340.15 K | – | – | 153.8
[2], 345.15 K | – | – | 155.2
[2], 350.15 K | – | – | 156.6
[2], 355.15 K | – | – | 158.4
[2], 360.15 K | – | – | 160.2
[2], 365.15 K | – | – | 162.6
[2], 370.15 K | – | – | 164.7
[2], 375.15 K | – | – | 166
[2], 380.15 K | – | – | 167.7
[2], 385.15 K | – | – | 169.2
[2], 390.15 K | – | – | 171
[2], 395.15 K | – | – | 172.3
[2], 400.15 K | – | – | 174.8
[2], 405.15 K | – | – | 175.9
[2], 410.15 K | – | – | 177.2
[2], 415.15 K | – | – | 178.5
[2], 420.15 K | – | – | 179.8
[2], 425.15 K | – | – | 181.3
[2], 430.15 K | – | – | 182.9
[3], Crystal 1 | – | 516.4 | –
[3], Crystal 2 | – | 498 | –
[3], Crystal 3 | – | 475.8 | –
[3], Crystal 4 | – | 447.2 | –
